Results: the METLIN SMRT retention time set (Domingo-Almenara et al. 2019)

Assay: gradient 5% acetonitrile 3 min, to 50% in 2 min, to 85% in 15 min, held 3 min, 100 µL/min
Settings: column: Zorbax Extend-C18 2.1 x 50 mm; eluents: water / acetonitrile, 0.1% formic acid
How it was run: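 The mobile phases were water and acetonitrile, each with 0.1% formic acid, pumped at 100 μL/min through a Zorbax Extend-C18 column (2.1 × 50 mm, 1.8 μm). Pure standards were injected as mixtures of ~100 molecules and detected by a quadrupole time-of-flight mass spectrometer in positive and negative ionization mode. Retention time came from computationally picked adduct peaks, each inspected by hand.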
An RP-LC retention time of 749 s was found for `CN1C(=O)c2cccnc2Sc2cc(NC(=O)C3CCCC3)ccc21` in this work. An RP-LC retention time of 658 s was found for `COc1ccc(N2CC(CNC(=O)Nc3c(F)cccc3F)CC2=O)cc1` (stereo unspecified) in this work. An RP-LC retention time of 899 s was found for `Cn1nc(-c2nnc(-c3ccccc3Cl)o2)c2c1CCN(C(=O)NC1CCCCC1)C2` in this work. An RP-LC retention time of 855 s was found for `CCCCS(=O)(=O)c1cc2c(cc1NC(=O)Cc1cccc(F)c1)n(C)c(=O)n2C` in this work. An RP-LC retention time of 942 s was found for `CCN(C(=O)C1CCN(S(=O)(=O)c2ccc3c(c2)sc(=O)n3CC)CC1)c1ccccc1` in this work. An RP-LC retention time of 771 s was found for `COc1ccc(OCC(=O)N2CCC(C(=O)NCc3csc(-c4cccs4)n3)CC2)cc1` in this work. An RP-LC retention time of 857 s was found for `COC(=O)CNC(=O)C1c2ccccc2C(=O)N(Cc2ccccc2)C12CCCC2` (stereo unspecified) in this work. An RP-LC retention time of 1140 s was found for `CCc1nc2cc(-c3noc(Cc4ccc(Cl)cc4)n3)ccc2o1` in this work. An RP-LC retention time of 732 s was found for `CCCCN(CCCNc1nc(C(=O)OCC)nc2ccccc12)c1ccccc1` in this work. An RP-LC retention time of 910 s was found for `O=C(Nc1cnc(N2CCN(c3ccccc3Cl)CC2)c(C(=O)O)c1)c1cccs1` in this work. An RP-LC retention time of 598 s was found for `COc1nn(C)cc1C(=O)Nc1nnc(-c2sc(C)nc2C)o1` in this work. An RP-LC retention time of 650 s was found for `COc1ccc(-c2nnc(CC(=O)NCC3CCCO3)o2)cc1` (stereo unspecified) in this work. An RP-LC retention time of 890 s was found for `CCc1ccc(NC(=O)C2CCN(C(=O)c3ncn4c3COC(c3ccc(F)cc3)C4)CC2)cc1` (stereo unspecified) in this work. An RP-LC retention time of 613 s was found for `O=C(CSc1nc2ccccc2[nH]1)Nc1nccs1` in this work. An RP-LC retention time of 793 s was found for `CCN(Cc1cn(C)nc1C)C(=O)C1CN(C(=O)c2ccccc2)CC12CCCCC2` (stereo unspecified) in this work. An RP-LC retention time of 1010 s was found for `CC(C(=O)N1CCCCC1)n1ccc2cc(S(=O)(=O)N3CCCCCC3)ccc21` (stereo unspecified) in this work. An RP-LC retention time of 759 s was found for `Cc1ccc(CN2CCN(CC(=O)Nc3ccc(Cl)cn3)C(=O)C2=O)cc1` in this work. An RP-LC retention time of 762 s was found for `Cc1ccc(NC(=O)c2cnn3c2CCCC3)c(C)c1` in this work. An RP-LC retention time of 577 s was found for `CC(C)CN1CCN(C(=O)c2cn3cc(Cl)ccc3n2)CC1` in this work. An RP-LC retention time of 878 s was found for `COc1ccc2[nH]cc(CCNC(=O)c3cc(Cl)ccc3Cl)c2c1` in this work. An RP-LC retention time of 860 s was found for `CC(C)c1cc(C(=O)Nc2ccc(F)cc2)nn1C1CCS(=O)(=O)C1` (stereo unspecified) in this work. An RP-LC retention time of 1310 s was found for `CC(C)(C)c1ccc(C(=O)Nc2nc(-c3ccc(F)cc3)cs2)cc1` in this work. An RP-LC retention time of 726 s was found for `CCc1nncn1C1CCN(S(=O)(=O)c2cccc(Cl)c2)CC1` in this work. An RP-LC retention time of 979 s was found for `O=C(Cn1nc(N2CCSCC2)c2ccccc2c1=O)Nc1ccc(Cl)cc1` in this work. An RP-LC retention time of 546 s was found for `O=C(c1ccc2cc[nH]c2c1)N1CCC(c2nc(C3CC3)n[nH]2)CC1` in this work. An RP-LC retention time of 659 s was found for `Cc1ccc(-n2cc3c(c(C(=O)N4CCN(c5ccccn5)CC4)c2=O)CC(C)(C)CC3=O)cc1` in this work. An RP-LC retention time of 603 s was found for `O=C(CCc1nc2sc3c(c2c(=O)[nH]1)CCCCC3)N1CCN(c2ccccn2)CC1` in this work. An RP-LC retention time of 606 s was found for `O=C(Cn1ccnc1-c1ccnc(N2CCCC2)c1)NCc1ccccc1Cl` in this work. An RP-LC retention time of 865 s was found for `Cc1cccc(C)c1-n1ccn(Cc2nc(-c3ccccc3)no2)c(=O)c1=O` in this work. An RP-LC retention time of 765 s was found for `O=C(NCc1ccc(Cl)cc1)C1CCN(C(=O)C2Sc3ccccc3NC2=O)CC1` (stereo unspecified) in this work. An RP-LC retention time of 631 s was found for `CC(C)N1CCC(c2nnc3n2CCN(S(=O)(=O)c2ccccc2C(F)(F)F)C3)C1` (stereo unspecified) in this work. An RP-LC retention time of 596 s was found for `CC(C)CN1CCN(Cc2nc(-c3ccc(N4CCCCC4)nc3)no2)CC1` in this work. An RP-LC retention time of 936 s was found for `O=C(Nc1cnc(-c2ccccc2)nc1)C1CCCC1` in this work. An RP-LC retention time of 732 s was found for `Cc1noc(C2CN(C(=O)Nc3ccccc3Cl)CC23CCOCC3)n1` (stereo unspecified) in this work. An RP-LC retention time of 868 s was found for `CCCN(CC1CCOC1)S(=O)(=O)c1cc(F)ccc1OC` (stereo unspecified) in this work. An RP-LC retention time of 1050 s was found for `Cc1sc(-c2noc(C3CC3)n2)cc1S(=O)(=O)N1CCC(C(=O)N2CCCCCC2)CC1` in this work. An RP-LC retention time of 959 s was found for `COc1ccc2c(c1)C=C(C(=O)NCCc1ccccc1)C=CO2` in this work. An RP-LC retention time of 708 s was found for `COc1cccc(CN2CC(c3nc(CCOCc4ccccc4)no3)C2)c1` in this work. An RP-LC retention time of 871 s was found for `Cn1nc(-c2nc(C3CC3)no2)c2c1CCN(C(=O)Nc1ccccc1Cl)C2` in this work. An RP-LC retention time of 687 s was found for `Nc1nc(OCc2cc(Br)cs2)c2[nH]cnc2n1` in this work. An RP-LC retention time of 910 s was found for `O=C(C1CCCCC1)N1CCN(c2cc(-c3ccc(Cl)cc3)[nH]n2)CC1` in this work. An RP-LC retention time of 801 s was found for `Cc1noc(COC2CCCN(C(=O)c3ccc(Cl)s3)C2)n1` (stereo unspecified) in this work. An RP-LC retention time of 604 s was found for `O=C(C1CCCN(c2ncnc3c2nc2n3CCCCC2)C1)N1CCN(C2CCCCC2)CC1` (stereo unspecified) in this work. An RP-LC retention time of 736 s was found for `COc1ccc(Nc2c(-c3nc(C)no3)cnc3nc(C)ccc23)cc1Cl` in this work. An RP-LC retention time of 732 s was found for `O=C(Cn1nc(C(=O)N2CCOCC2)c2ccccc21)Nc1ccc(F)cc1F` in this work. An RP-LC retention time of 830 s was found for `Cc1noc(-c2cccc(OC3CN(C(=O)NCc4ccccc4)C3)c2)n1` in this work. An RP-LC retention time of 934 s was found for `CCCCC1CCC(C(=O)Nc2nc(-c3ccc4c(c3)NC(=O)CO4)cs2)CC1` (stereo unspecified) in this work. An RP-LC retention time of 873 s was found for `COc1ccccc1OCC(=O)Nc1ccc2c(c1)C(=O)Nc1cc(Cl)ccc1O2` in this work. An RP-LC retention time of 566 s was found for `O=C(c1ccccn1)N1CC(n2cc(COc3ccncc3)nn2)C1` in this work. An RP-LC retention time of 866 s was found for `Cc1nc(-c2noc(-c3ccccc3)n2)cn1CC(=O)NCc1cccc(Cl)c1` in this work. An RP-LC retention time of 953 s was found for `O=C1[C@H]2CN(Cc3ccc(Cl)c(F)c3)C[C@H]2C(=O)N1Cc1ccc2c(c1)OCO2` in this work. An RP-LC retention time of 987 s was found for `O=C(Cn1nc2c(SC3CCCCC3)nccn2c1=O)NC1CCCCC1` in this work. An RP-LC retention time of 596 s was found for `CCCC(=O)N1CCC(C(=O)NCCc2cscn2)CC1` in this work. An RP-LC retention time of 926 s was found for `Cc1ccc(-n2c(=O)n(C)c(=O)c3cc(C(=O)Nc4ccccc4)cnc32)cc1` in this work. An RP-LC retention time of 882 s was found for `COC(=O)c1ccsc1NC(=O)c1c[nH]c2ccccc12` in this work. An RP-LC retention time of 800 s was found for `CCCOc1ccc(C(=O)Nc2nnc(C3CC(=O)N(c4ccccc4)C3)o2)cc1` (stereo unspecified) in this work. An RP-LC retention time of 654 s was found for `CCN1C(=O)C(CC(=O)N2CCCC2)Sc2ncccc21` (stereo unspecified) in this work. An RP-LC retention time of 706 s was found for `O=C1C(=O)N(C2CCN(C(=O)c3ccc(Br)o3)CC2)CCN1Cc1ccccc1` in this work. An RP-LC retention time of 683 s was found for `Cc1cccn2c(Nc3ccc4c(c3)OCCO4)c(-c3ccc(N4CCOCC4)cc3)nc12` in this work. An RP-LC retention time of 743 s was found for `N#Cc1cccc(S(=O)(=O)N2CCC(c3cc(N)on3)CC2)c1` in this work. An RP-LC retention time of 594 s was found for `CCN1CCN(CCCNC(=O)c2c(-c3ccc(Br)s3)noc2C)CC1` in this work. An RP-LC retention time of 1030 s was found for `Cc1ccc2c(=O)c(S(=O)(=O)c3ccccc3)cn(Cc3cccc(Cl)c3)c2n1` in this work. An RP-LC retention time of 837 s was found for `COc1ccc(C(=O)N2CCN(c3cc(-c4cccs4)[nH]n3)CC2)cc1F` in this work. An RP-LC retention time of 1160 s was found for `Cc1ccc(-c2cc3c(=O)n(Cc4noc(-c5ccccc5)n4)ccn3n2)c(C)c1` in this work. An RP-LC retention time of 790 s was found for `Cc1ccc(Nc2c(-c3ccc([N+](=O)[O-])cc3)nc3cc(C)ccn23)cc1` in this work. An RP-LC retention time of 628 s was found for `CC(C(=O)NCc1cccs1)S(=O)(=O)c1ccc2c(c1)S(=O)(=O)N=CN2` (stereo unspecified) in this work. An RP-LC retention time of 684 s was found for `O=C(NCCn1c(-c2ccccc2)nc2cccnc21)NCc1ccc(F)cc1` in this work. An RP-LC retention time of 664 s was found for `O=C(CN1CCc2[nH]c3c(F)c(Cl)ccc3c(=O)c2C1)NCc1ccccc1F` in this work. An RP-LC retention time of 997 s was found for `Cc1ccc(C(=O)Nc2ccc3c(c2)Sc2ncccc2C(=O)N3C(C)C)cc1C` in this work. An RP-LC retention time of 613 s was found for `COCCC(=O)N1CCC(Oc2nccnc2N2CCOCC2)C1` (stereo unspecified) in this work. An RP-LC retention time of 645 s was found for `CCC(C(=O)NCCCN1CCCC1)n1nc(C)c2nn(-c3ccccc3)c(C)c2c1=O` (stereo unspecified) in this work. An RP-LC retention time of 724 s was found for `COc1cccc(NC(=O)CN2C(=O)NC3(CCCCC3)C2=O)c1` in this work. An RP-LC retention time of 744 s was found for `O=C(CCc1ccccc1)Nc1cnc(N2CCOCC2)nc1` in this work. An RP-LC retention time of 744 s was found for `CC1CCN(S(=O)(=O)c2ccc3nn(C)c(=O)n3c2)CC1` in this work. An RP-LC retention time of 738 s was found for `Cc1cc2[nH]c(C(=O)Nc3cc(F)cc(F)c3)c(CN3CCOCC3)c2s1` in this work. An RP-LC retention time of 654 s was found for `COc1cccc(-c2nnc(-c3ccc(-n4ccnc4)nc3)o2)c1` in this work. An RP-LC retention time of 962 s was found for `O=S(=O)(Cc1ccccc1F)N1CCC(c2noc(COCC3CC3)n2)CC1` in this work. An RP-LC retention time of 892 s was found for `CCn1cc(S(=O)(=O)Nc2cc(C)ccc2C)c2cccnc21` in this work. An RP-LC retention time of 721 s was found for `CCn1ccc2c(cc(C(=O)Nc3ccc4c(c3)OCCO4)n2C)c1=O` in this work. An RP-LC retention time of 656 s was found for `Cc1cc(=O)n(CC(=O)NCc2ccc(F)cc2)c(N2CCCCC2)n1` in this work. An RP-LC retention time of 617 s was found for `NC(=O)CCCCn1ccc(NC(N)=NCC(F)(F)F)n1` in this work. An RP-LC retention time of 945 s was found for `Cc1cccc(N2CCN(c3ncc(C(=O)O)c(C)n3)CC2)c1` in this work. An RP-LC retention time of 638 s was found for `Cc1nn2c(CNC(=O)c3ccccc3C(F)(F)F)c(C)nc2s1` in this work. An RP-LC retention time of 703 s was found for `COC(=O)c1c(NCC2CCCO2)c2cccc(Cl)c2[nH]c1=O` (stereo unspecified) in this work. An RP-LC retention time of 541 s was found for `Cc1cccc2nnc(N3CCCN(C(=O)c4cccs4)CC3)n12` in this work. An RP-LC retention time of 627 s was found for `COCCC(=O)N1CCC(c2noc(C3CC3)n2)C1` (stereo unspecified) in this work. An RP-LC retention time of 858 s was found for `CC(=O)Nc1ccccc1SC(CC(=O)c1ccco1)c1ccc2c(c1)OCO2` (stereo unspecified) in this work. An RP-LC retention time of 741 s was found for `CC1CC(=O)N(CC(=O)NCc2ccc3c(c2)OCO3)c2ccccc2S1` (stereo unspecified) in this work. An RP-LC retention time of 556 s was found for `CN(C)C(=O)c1cc2c(s1)CCC(C(=O)NCc1ccncc1)C2` (stereo unspecified) in this work. An RP-LC retention time of 860 s was found for `CCCN1C(=O)c2c(C(=O)NCCc3ccccc3)ncn2CC1(C)C(=O)NC1CCCC1` (stereo unspecified) in this work. An RP-LC retention time of 741 s was found for `CCCNC(=O)C1CCCN(c2ccc(SCC(=O)Nc3cccc(C(=O)OCC)c3)nn2)C1` (stereo unspecified) in this work.
